Data set [1] concerns the target Keap1-Nrf2 PPI (Keap1 Kelch domain protein / FITC-9mer Nrf2 peptide amide) (Homo sapiens, UniProt Q14145). Nature of the data set: Fluorescence polarisation. The format is binding. Conditions: for inhibitory activities against Keap1-Nrf2 PPI compared to compound K3: FP assay, 5 and 50 μM, R2 substituent varied; for inhibition at 50 µM: read-out: inhibitory rate against Keap1-Nrf2 PPI.

Data set [2] in a line: Metabolic stability in human liver microsomes. The format is in vitro ADME. Conditions: pH 7.4.

The structures appear in SMILES notation.

Keap1-Nrf2 PPI (Keap1 Kelch domain protein / FITC-9mer Nrf2 peptide amide), sequence (Q14145 321-609 limits assumed): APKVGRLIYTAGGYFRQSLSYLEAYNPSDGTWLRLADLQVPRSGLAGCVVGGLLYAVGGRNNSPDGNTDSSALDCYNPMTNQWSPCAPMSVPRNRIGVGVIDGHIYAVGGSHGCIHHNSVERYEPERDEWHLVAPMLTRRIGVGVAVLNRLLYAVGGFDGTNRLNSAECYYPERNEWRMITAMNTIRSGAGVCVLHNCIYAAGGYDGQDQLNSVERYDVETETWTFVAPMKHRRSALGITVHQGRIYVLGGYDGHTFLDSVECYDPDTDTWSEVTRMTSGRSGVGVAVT

As to `COc1ccc(S(=O)(=O)Nc2ccc(NS(=O)(=O)c3cccc4cccnc34)cc2)cc1` [K17], the “inhibitory activities against Keap1-Nrf2 PPI compared to compound K3” value (“inhibitory activities … compared to compound K3” below) in data set [1] is “markedly decreased”.
With `COc1ccc(S(=O)(=O)Nc2ccc(NS(=O)(=O)c3ccccc3)cc2)cc1` [K10], in data set [1], the “inhibitory activities … compared to compound K3” value is reported as “markedly decreased”.
Consider `COc1ccc(S(=O)(=O)Nc2ccc(NS(=O)(=O)c3ccc(OC)cc3)cc2)cc1` [K3], for which, in data set [1], it took 36.3 µM to reach half-maximal inhibition (IC50) and the inhibition at 50 µM was roughly 68%.
`COc1ccc(S(=O)(=O)Nc2ccc(NS(=O)(=O)c3cccnc3)cc2)cc1` [K18]: in data set [1], the IC50 is roughly 31.5 µM, the “inhibitory activities … compared to compound K3” value is “slightly higher” and the inhibition at 50 µM is 72%.
As for `COc1ccc(S(=O)(=O)Nc2ccc(NS(=O)(=O)Cc3ccccc3)cc2)cc1` [K15], the “inhibitory activities … compared to compound K3” value in data set [1] was “markedly decreased”.
`O=C(CCc1ccc(O)cc1)c1c(O)cc(O)cc1O` [PHL, Phloretin, reference compound] had a half-maximal inhibitory concentration (IC50) in data set [1] of 8.67 µM. Also, the amount remaining at 0.5 h, 10 μM in data set [2] is 10.3%.
Regarding `COc1ccc(S(=O)(=O)Nc2ccc(NS(=O)(=O)c3ccc4ccccc4c3)cc2)cc1` [K16], in data set [1], the “inhibitory activities … compared to compound K3” value is reported as “markedly decreased”.
Turning to `COc1ccc(S(=O)(=O)Nc2ccc(NS(=O)(=O)c3ccc(OC)cc3)c(CCC(=O)O)c2)cc1` [KP-1], in data set [1], the midpoint of inhibition, the IC50, lay at 0.74 µM.
For the compound `COc1ccc(S(=O)(=O)Nc2ccc(NS(=O)(=O)c3ccc(C)cc3)cc2)cc1` [K11], the “inhibitory activities … compared to compound K3” value in data set [1] is reported as “markedly decreased”.
Same read-out and setting: in the case of `COc1ccc(S(=O)(=O)Nc2ccc(NS(=O)(=O)c3ccc(-c4ccccc4)cc3)cc2)cc1` [K14] it was “markedly decreased”.

For the origin of these results see PMC9518255 (Journal of Enzyme Inhibition and Medicinal Chemistry, 2022).
